The assay deals with recombinant full length HPK-1 enzyme (Homo sapiens (Human), UniProt Q92918). The assay can be described thus: HPK-1 biochemical enzyme assay (ADP-Glo kinase inhibition). Particulars: recombinant full length HPK-1 6.8 nM, 10 μM ATP, 12.5 μM MBP, 30 mins at 25° C. In short, it runs like this:
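ADP-Glo readout of ADP formed after a 30 min, 25° C. reaction of 6.8 nM full-length HPK-1 with swine myelin basic protein (12.5 μM) and ATP (10 μM) in Tris pH 7.4 buffer with MgCl2, DTT and BSA. Ten compound concentrations tested; percent inhibition set against vehicle (0%) and no-enzyme (100%) controls gave IC50.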
A general note: ADP-Glo turns the ADP formed in a reaction into a luminescent signal.

The structures appear in SMILES notation.

As a reminder, the IC50 is the point on the concentration scale where inhibition reaches its midpoint.

Sequence of recombinant full length HPK-1 enzyme (Q92918 whole entry, species assumed): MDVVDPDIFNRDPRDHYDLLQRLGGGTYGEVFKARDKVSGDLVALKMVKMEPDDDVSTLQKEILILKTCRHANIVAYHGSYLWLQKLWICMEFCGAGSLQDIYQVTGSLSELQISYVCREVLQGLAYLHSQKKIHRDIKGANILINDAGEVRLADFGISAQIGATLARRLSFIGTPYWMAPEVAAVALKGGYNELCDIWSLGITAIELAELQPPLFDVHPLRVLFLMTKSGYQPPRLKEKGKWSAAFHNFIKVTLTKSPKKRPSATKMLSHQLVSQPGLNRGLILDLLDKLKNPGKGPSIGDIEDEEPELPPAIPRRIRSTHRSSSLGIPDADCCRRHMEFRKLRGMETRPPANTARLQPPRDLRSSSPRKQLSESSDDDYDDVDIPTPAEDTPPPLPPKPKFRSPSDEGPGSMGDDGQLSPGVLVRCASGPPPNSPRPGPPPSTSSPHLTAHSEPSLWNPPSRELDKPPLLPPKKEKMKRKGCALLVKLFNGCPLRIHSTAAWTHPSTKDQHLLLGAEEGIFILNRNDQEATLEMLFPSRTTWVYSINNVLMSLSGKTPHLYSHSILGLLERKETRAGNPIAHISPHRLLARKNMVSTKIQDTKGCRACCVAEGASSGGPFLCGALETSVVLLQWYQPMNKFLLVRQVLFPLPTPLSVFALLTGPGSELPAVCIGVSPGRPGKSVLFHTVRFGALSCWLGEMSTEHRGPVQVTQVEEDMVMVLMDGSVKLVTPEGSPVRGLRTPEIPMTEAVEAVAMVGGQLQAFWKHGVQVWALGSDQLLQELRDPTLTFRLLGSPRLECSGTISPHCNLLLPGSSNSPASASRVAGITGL

Consider `Cc1c(Nc2cc[nH]c(=O)c2C(=O)Nc2ccc(N3CCN(Cc4ccn[nH]4)CC3)cc2)cnc2c1NCCO2` [Example 174, N-(4-(4-((1H-pyrazol-5-yl)methyl)piperazin-1-yl)phenyl)-4-((8-methyl-2,3-dihydro-1H-pyrido[2,3-b][1,4]oxazin-7-yl)amino)-2-oxo-1,2-dihydropyridine-3-carboxamide], for which the IC50 is not above 0.01 µM. Take `CCN1C(=O)C(C)(C)c2cc(NC(=O)c3c(Nc4cnc5c(c4C)NCCO5)cc[nH]c3=O)ccc21` [Example 218, N-(1-ethyl-3,3-dimethyl-2-oxoindolin-5-yl)-4-((8-methyl-2,3-dihydro-1H-pyrido[2,3-b][1,4]oxazin-7-yl)amino)-2-oxo-1,2-dihydropyridine-3-carboxamide]: the IC50 was 0.1 to 1 µM.

For the molecule `CCCCC(CC)CNC(=O)c1ccc(NC(=O)c2c(Nc3cnc4c(c3C)NCCO4)cc[nH]c2=O)cc1` (stereo not shown) [Example 281, N-(4-((2-ethylhexyl)carbamoyl)phenyl)-4-((8-methyl-2,3-dihydro-1H-pyrido[2,3-b][1,4]oxazin-7-yl)amino)-2-oxo-1,2-dihydropyridine-3-carboxamide], the IC50 lay in the range of 0.01 to 0.1 µM. Under `Cc1c(Nc2cc[nH]c(=O)c2C(=O)Nc2ccc(N3CCN(CC(C)(C)O)CC3)cc2)cnc2c1NCCO2` [Example 282, N-(4-(4-(2-hydroxy-2-methylpropyl)piperazin-1-yl)phenyl)-4-((8-methyl-2,3-dihydro-1H-pyrido[2,3-b][1,4]oxazin-7-yl)amino)-2-oxo-1,2-dihydropyridine-3-carboxamide] stands not above 0.01 µM; under `Cc1c(Nc2cc[nH]c(=O)c2C(=O)Nc2ccc(N3CCC(O)(CN(C)C)CC3)cc2)cnc2c1NCCO2` [Example 375, N-(4-(4-((dimethylamino)methyl)-4-hydroxypiperidin-1-yl)phenyl)-4-((8-methyl-2,3-dihydro-1H-pyrido[2,3-b][1,4]oxazin-7-yl)amino)-2-oxo-1,2-dihydropyridine-3-carboxamide], not above 0.01 µM; under `CC(=O)Nc1ccc(NC(=O)c2c(Nc3cnc4c(c3C)NCCO4)cc[nH]c2=O)cn1` [Example 243, N-(6-acetamidopyridin-3-yl)-4-((8-methyl-2,3-dihydro-1H-pyrido[2,3-b][1,4]oxazin-7-yl)amino)-2-oxo-1,2-dihydropyridine-3-carboxamide], 0.1 to 1 µM. Regarding `Cc1c(Nc2cc[nH]c(=O)c2C(=O)Nc2ccc(N3CCN(C4(C)COC4)CC3)cc2)cnc2c1NCCO2` [Example 380, 4-((8-methyl-2,3-dihydro-1H-pyrido[2,3-b][1,4]oxazin-7-yl)amino)-N-(4-(4-(3-methyloxetan-3-yl)piperazin-1-yl)phenyl)-2-oxo-1,2-dihydropyridine-3-carboxamide], the IC50 fell in the range of 0.01 to 0.1 µM. On to `Cc1c(Nc2cc[nH]c(=O)c2C(=O)Nc2ccc(N3CCN(C(=O)C4CCN(C)C4)CC3)cc2)cnc2c1NCCO2` (stereo not shown) [Example 356, 4-((8-methyl-2,3-dihydro-1H-pyrido[2,3-b][1,4]oxazin-7-yl)amino)-N-(4-(4-(1-methylpyrrolidine-3-carbonyl)piperazin-1-yl)phenyl)-2-oxo-1,2-dihydropyridine-3-carboxamide], for which the IC50 lay in the range of 0.01 to 0.1 µM. With `Cc1c(Nc2cc[nH]c(=O)c2C(=O)Nc2ccc(N3CCN(C(=O)C4CC(C)C4)CC3)cc2)cnc2c1NCCO2` (stereo not shown) [Example 307, 4-((8-methyl-2,3-dihydro-1H-pyrido[2,3-b][1,4]oxazin-7-yl)amino)-N-(4-(4-(3-methylcyclobutane-1-carbonyl)piperazin-1-yl)phenyl)-2-oxo-1,2-dihydropyridine-3-carboxamide] the figure was not above 0.01 µM; with `Cc1c(Nc2cc[nH]c(=O)c2C(=O)Nc2ccc(-c3cc[nH]n3)cc2)cnc2c1NCCO2` [Example 145, N-(4-(1H-pyrazol-3-yl)phenyl)-4-((8-methyl-2,3-dihydro-1H-pyrido[2,3-b][1,4]oxazin-7-yl)amino)-2-oxo-1,2-dihydropyridine-3-carboxamide], 0.01 to 0.1 µM; with `Cc1c(Nc2cc[nH]c(=O)c2C(=O)Nc2ccc3c(c2)NC(=O)CO3)cnc2c1NCCO2` [Example 221, 4-((8-methyl-2,3-dihydro-1H-pyrido[2,3-b][1,4]oxazin-7-yl)amino)-2-oxo-N-(3-oxo-3,4-dihydro-2H-benzo[b][1,4]oxazin-6-yl)-1,2-dihydropyridine-3-carboxamide], 0.1 to 1 µM. Regarding `Cc1c(Nc2cc[nH]c(=O)c2C(=O)Nc2ccc(N3CCN(Cc4ccnn4C)CC3)cc2)cnc2c1NCCO2` [Example 308, N-(4-(4-((1-methyl-1H-pyrazol-5-yl)methyl)piperazin-1-yl)phenyl)-4-((8-methyl-2,3-dihydro-1H-pyrido[2,3-b][1,4]oxazin-7-yl)amino)-2-oxo-1,2-dihydropyridine-3-carboxamide], the IC50 is not above 0.01 µM.

For the molecule `Cc1c(Nc2cc[nH]c(=O)c2C(=O)Nc2ccc(N3CCN(C(=O)CC4CC4)CC3)cc2)cnc2c1NCCO2` [Example 312, N-(4-(4-(2-cyclopropylacetyl)piperazin-1-yl)phenyl)-4-((8-methyl-2,3-dihydro-1H-pyrido[2,3-b][1,4]oxazin-7-yl)amino)-2-oxo-1,2-dihydropyridine-3-carboxamide], the IC50 is not above 0.01 µM. As for `Cc1c(Nc2cc[nH]c(=O)c2C(=O)Nc2ccc3c(c2)CN(C)C(=O)C3)cnc2c1NCCO2` [Example 180, 4-((8-methyl-2,3-dihydro-1H-pyrido[2,3-b][1,4]oxazin-7-yl)amino)-N-(2-methyl-3-oxo-1,2,3,4-tetrahydroisoquinolin-7-yl)-2-oxo-1,2-dihydropyridine-3-carboxamide], the IC50 was 0.01 to 0.1 µM. Take `Cc1c(Nc2cc[nH]c(=O)c2C(=O)Nc2ccc(N3CCN(C(=O)N4CCCC4)CC3)cc2)cnc2c1NCCO2` [Example 324, 4-((8-methyl-2,3-dihydro-1H-pyrido[2,3-b][1,4]oxazin-7-yl)amino)-2-oxo-N-(4-(4-(pyrrolidine-1-carbonyl)piperazin-1-yl)phenyl)-1,2-dihydropyridine-3-carboxamide]: the IC50 is not above 0.01 µM. Under `Cc1c(Nc2cc[nH]c(=O)c2C(=O)Nc2ccc(N3CCN(C)CC3)cc2)cnc2c1NCC(F)O2` (stereo not shown) [Example 198, 4-((3-Fluoro-8-methyl-2,3-dihydro-1H-pyrido[2,3-b][1,4]oxazin-7-yl)amino)-N-(4-(4-methylpiperazin-1-yl)phenyl)-2-oxo-1,2-dihydropyridine-3-carboxamide] stands 0.01 to 0.1 µM; under `Cc1c(Nc2cc[nH]c(=O)c2C(=O)Nc2ccc(N3CCN(C(C)C)CC3)cc2)cnc2c1NCC(C)O2` (stereo not shown) [Example 405, 4-((3,8-dimethyl-2,3-dihydro-1H-pyrido[2,3-b][1,4]oxazin-7-yl)amino)-N-(4-(4-isopropylpiperazin-1-yl)phenyl)-2-oxo-1,2-dihydropyridine-3-carboxamide], 0.01 to 0.1 µM. `Cc1c(Nc2cc[nH]c(=O)c2C(=O)Nc2ccc(N3CCN(C(=O)[C@@H]4C[C@@H]4F)CC3)cc2)cnc2c1NCCO2` [Example 293, N-(4-(4-((1S,2S)-2-fluorocyclopropane-1-carbonyl)piperazin-1-yl)phenyl)-4-((8-methyl-2,3-dihydro-1H-pyrido[2,3-b][1,4]oxazin-7-yl)amino)-2-oxo-1,2-dihydropyridine-3-carboxamide]: the IC50 was not above 0.01 µM. `Cc1c(Nc2cc[nH]c(=O)c2C(=O)Nc2ccc3[nH]ncc3c2)cnc2c1NCCO2` [Example 234, N-(1H-indazol-5-yl)-4-((8-methyl-2,3-dihydro-1H-pyrido[2,3-b][1,4]oxazin-7-yl)amino)-2-oxo-1,2-dihydropyridine-3-carboxamide]: the IC50 was in the range of 0.01 to 0.1 µM.

Regarding `CN1CCN(c2ccc(NC(=O)c3c(Nc4cnc5c(c4)N(C)CCO5)cc[nH]c3=O)cc2)CC1` [Example 118, 4-((1-methyl-2,3-dihydro-1H-pyrido[2,3-b][1,4]oxazin-7-yl)amino)-N-(4-(4-methylpiperazin-1-yl)phenyl)-2-oxo-1,2-dihydropyridine-3-carboxamide], the IC50 is 0.01 to 0.1 µM. With `CO[C@H](C)C(=O)N1CCN(c2ccc(NC(=O)c3c(Nc4cnc5c(c4C)NCCO5)cc[nH]c3=O)cc2)CC1` [Example 353, (R)-N-(4-(4-(2-methoxypropanoyl)piperazin-1-yl)phenyl)-4-((8-methyl-2,3-dihydro-1H-pyrido[2,3-b][1,4]oxazin-7-yl)amino)-2-oxo-1,2-dihydropyridine-3-carboxamide] the figure was 0.01 to 0.1 µM; with `Cc1c(Nc2cc[nH]c(=O)c2C(=O)Nc2ccc(-c3cn[nH]c3)cc2)cnc2c1NCCO2` [Example 144, N-(4-(1H-pyrazol-4-yl)phenyl)-4-((8-methyl-2,3-dihydro-1H-pyrido[2,3-b][1,4]oxazin-7-yl)amino)-2-oxo-1,2-dihydropyridine-3-carboxamide], 0.01 to 0.1 µM. Turning to `Cc1c(Nc2cc[nH]c(=O)c2C(=O)Nc2ccc(NC3CCN(C)CC3)cc2)cnc2c1NCCO2` [Example 209, 4-((8-methyl-2,3-dihydro-1H-pyrido[2,3-b][1,4]oxazin-7-yl)amino)-N-(4-((1-methylpiperidin-4-yl)amino)phenyl)-2-oxo-1,2-dihydropyridine-3-carboxamide], the IC50 was in the range of 0.01 to 0.1 µM. Consider `Cc1c(Nc2cc[nH]c(=O)c2C(=O)Nc2ccc(N3CCN(C)CC3)c(CN(C)C)c2)cnc2c1NCCO2` [Example 227, N-(3-((dimethylamino)methyl)-4-(4-methylpiperazin-1-yl)phenyl)-4-((8-methyl-2,3-dihydro-1H-pyrido[2,3-b][1,4]oxazin-7-yl)amino)-2-oxo-1,2-dihydropyridine-3-carboxamide], for which the IC50 is not above 0.01 µM.

In the case of `Cc1c(Nc2cc[nH]c(=O)c2C(=O)Nc2ccc(N3CCN4C(=O)CC[C@H]4C3)cc2)cnc2c1NCCO2` [Example 359, (S)-4-((8-methyl-2,3-dihydro-1H-pyrido[2,3-b][1,4]oxazin-7-yl)amino)-2-oxo-N-(4-(6-oxohexahydropyrrolo[1,2-a]pyrazin-2(1H)-yl)phenyl)-1,2-dihydropyridine-3-carboxamide], the IC50 is 0.01 to 0.1 µM.

For the origin of these results see patent US20250282794A1 (CURADEV PHARMA LTD, priority 2022, published 2025).
